Values after ≈ are worked out from the molar mass of the structure shown.

The test system of one test is Sclerotinia sclerotiorum. Kind of test: Antifungal activity against Sclerotinia rot of kidney bean (sprayed cotyledons, mycelial inoculation). It counts as in vivo. The note with it: 500 ppm a.i.; for Average infected area: 28°C, RH 100%, 4 days; for Controlled value: (1-S/S₀)×100, 4 days. How it is done:
A 20 ml sample solution containing a predetermined concentration of the active compound was sprayed on 10 cotyledons of a kidney bean (variety: Masterpiece), which were dried in a room. After drying, the mycelia of Sclerotinia sclerotiorum grown on a PDA culture medium was inoculated after punching with a cork borer. The incubation was carried out at a temperature of 28°C and an RH of 100% for 4 days. The infected area was measured. Ten tests were carried out in each run. […]

Test [1] concerns Botrytis cinerea. Kind of test: Antifungal activity against Botrytis cinerea by agar dilution method. It counts as cell-based. The note with it: 120 h, concentration for 90% inhibition of mycelium growth, potato-agar medium, 25°C, 5 days, read-out: EC₉₀. How it is done:
The culture medium thus obtained was allowed to stand in a room with constant temperature for predetermined days. Thereafter, the growth of mycelium of the microorganism was measured and the concentration for 90% inhibition of the growth (EC₉₀) was determined. Four tests were carried out in each run. The tests for microorganisms were carried out at a temperature of 25°C for 5 days.

Test [2] concerns Botrytis cinerea. Kind of test: Activity persistence against gray mold of egg plant (spray 1 to 10 days before inoculation). In kind it is in vivo. The note with it: 250 ppm a.i.
Test [3] deals with Botrytis cinerea. Description: Curative activity against gray mold of egg plant (detached leaf, spray after disease development). In kind it is in vivo. As to conditions: 125 ppm a.i. How it is done:
A second developed leaf of egg plant (variety: Senryo #12) was placed in a petri dish and the mycelia of Botrytis cinerea grown on a PDA culture medium was inoculated after punching with a cork borer on the center of the leaf. The incubation was carried out at 25°C under humid condition for 24 hours. […] After air drying, the incubation was carried out at 25°C under humid condition. The diameter of the infected area was measured every day for 5 days after the application. Eight tests were carried out in each run.

Test [4] deals with rice blast fungus (Pyricularia oryzae). In kind it is in vivo. The note with it: 500 ppm a.i., 10 days after inoculation; for No. of leaves in each infection degree 0: index 0 = 0 lesions per leaf; for No. of leaves in each infection degree 1: index 1 = 1 lesion per leaf; for No. of leaves in each infection degree 2: index 2 = 2-5 lesions per leaf; for No. of leaves in each infection degree 3: index 3 = 6-10 lesions per leaf; for No. of leaves in each infection degree 4: index 4 = 11 or more lesions per leaf; for % of Infected leaves / Infection degree / No. of infected leaves: rice seedlings.

Setting [5] is: 1 day between application and inoculation.
Setting [6] is: 4 days between application and inoculation.
[7] abbreviates: 7 days between application and inoculation.
[8] abbreviates: 10 days between application and inoculation.
[9] abbreviates: 1 day between application and observation.
[10] abbreviates: 2 days between application and observation.
Where [11] appears, read: 3 days between application and observation.
Where [12] appears, read: 4 days between application and observation.
Setting [13] is: 5 days between application and observation.

For the molecule `CCC(c1ccc(F)cc1Cl)C(C#N)c1cccnc1` (centres unmarked) [Compound 12, 3-(2-chloro-4-fluorophenyl)-2-(3-pyridyl)pentanenitrile], the Average infected area in the test on Sclerotinia sclerotiorum is 5%. The molecule further showed a Controlled value in the test on Sclerotinia sclerotiorum of 95%. In addition, the EC90 in the test with Botrytis cinerea [1] turned out to be 0.9 µg/mL (≈ 3.12 µM). Further, the Infection degree came to 10.0 in the test with Botrytis cinerea [2] (setting [5]), 11.0 in the test on Botrytis cinerea [2] (setting [6]), 12.0 in the test with Botrytis cinerea [2] (setting [7]) and 15.0 in the test with Botrytis cinerea [2] (setting [8]). Besides, the Diameter of lesion with Botrytis cinerea [3] (setting [9]) stood at 10 mm; with Botrytis cinerea [3] (setting [10]), 15 mm; in the test with Botrytis cinerea [3] (setting [11]), 17 mm; with Botrytis cinerea [3] (setting [12]), 19 mm; with Botrytis cinerea [3] (setting [13]) it was 19 mm.
For the molecule `CC(C)OC(=O)C(C(=O)OC(C)C)=C1SCCS1` [F, diisopropyl-1,3,-dithiolan-2-ylidene malonate], in test [4], the “No. of leaves in each infection degree 0” value is recorded as 128, the “No. of leaves in each infection degree 1” value is listed as 45, the “No. of leaves in each infection degree 2” value is given as 12 and the “No. of leaves in each infection degree 3” value was 0. In test [4], the “No. of leaves in each infection degree 4” value is on record as 0, the “% of Infected leaves” value worked out at 30.8%, the Infection degree is recorded as 9.3 and the “No. of infected leaves” value is listed as 185.
With `CC12CC1(C)C(=O)N(c1cc(Cl)cc(Cl)c1)C2=O` (centres unmarked) [D, N-(3′,5′-dichlorophenyl)-1,2-dimethylcyclopropane-1,2-dicarboximide], the Infection degree in the test with Botrytis cinerea [2] (setting [5]) stood at 12.0; in the test on Botrytis cinerea [2] (setting [6]), 15.5; in the test with Botrytis cinerea [2] (setting [7]), 20.5; with Botrytis cinerea [2] (setting [8]), 25.0.
For `O=C1OCc2c(Cl)c(Cl)c(Cl)c(Cl)c21` [G, 4,5,6,7-tetrachlorophthalide], in test [4], the “No. of leaves in each infection degree 0” value amounted to 151, the “No. of leaves in each infection degree 1” value is recorded as 28, the “No. of leaves in each infection degree 2” value is 1 and the “No. of leaves in each infection degree 3” value came out at 0. For the same molecule, in test [4], the “No. of leaves in each infection degree 4” value is recorded as 0, the “% of Infected leaves” value is given as 16.1%, the Infection degree was found to be 4.2 and the “No. of infected leaves” value was 180.
As for `COC(=O)NC(=S)Nc1ccccc1NC(=S)NC(=O)OC` [E, dimethyl-4,4′-o-phenylene-bis(3-thioalfanate)], the Average infected area in the test on Sclerotinia sclerotiorum came to 20%. The Controlled value in the test with Sclerotinia sclerotiorum came out at 80%. Moreover, the Diameter of lesion in the test on Botrytis cinerea [3] (setting [9]) was 10 mm; with Botrytis cinerea [3] (setting [10]), 18 mm; in the test on Botrytis cinerea [3] (setting [11]), 21 mm; in the test with Botrytis cinerea [3] (setting [12]) it was 22 mm; in the test on Botrytis cinerea [3] (setting [13]), 26 mm.
In the test on Sclerotinia sclerotiorum, `CCC(c1ccc(Cl)cc1Cl)C(C#N)c1cccnc1` (centres unmarked) [Compound 1, 3-(2,4-dichlorophenyl)-2-(3-pyridyl)pentanenitrile] registered an Average infected area of 5% and a Controlled value of 95%. In addition, in test [4], the “No. of leaves in each infection degree 0” value stood at 145, the “No. of leaves in each infection degree 1” value is listed as 48, the “No. of leaves in each infection degree 2” value amounted to 13 and the “No. of leaves in each infection degree 3” value amounted to 0. Besides, in test [4], the “No. of leaves in each infection degree 4” value came to 0, the “% of Infected leaves” value stood at 29.6%, the Infection degree was determined as 9.0 and the “No. of infected leaves” value turned out to be 206. In the test on Botrytis cinerea [1], the EC90 turned out to be 1.4 µg/mL (≈ 4.59 µM). In the test with Botrytis cinerea [2] (setting [5]), this molecule displayed an Infection degree of 10.0. The molecule further yielded an Infection degree with Botrytis cinerea [2] (setting [6]) of 12.0. The molecule further yielded an Infection degree in the test with Botrytis cinerea [2] (setting [7]) of 17.5. The Infection degree in the test with Botrytis cinerea [2] (setting [8]) worked out at 17.5. Also, the Diameter of lesion in the test on Botrytis cinerea [3] (setting [9]) is reported as 10 mm. The same molecule had a Diameter of lesion with Botrytis cinerea [3] (setting [10]) of 15 mm. This molecule came in with a Diameter of lesion in the test on Botrytis cinerea [3] (setting [11]) of 17 mm. The molecule further yielded a Diameter of lesion with Botrytis cinerea [3] (setting [12]) of 19 mm. This molecule also had a Diameter of lesion with Botrytis cinerea [3] (setting [13]) of 19 mm.
`CCCC(c1ccc(Cl)cc1Cl)C(C#N)n1ccnc1` (centres unmarked) [A, 3-(2,4-dichlorophenyl)-2-(1-imidazolyl)hexanenitrile] came in with an Average infected area with Sclerotinia sclerotiorum of 40%. The molecule further had a Controlled value in the test with Sclerotinia sclerotiorum of 60%. Also, the EC90 with Botrytis cinerea [1] came out at 10.9 µg/mL (≈ 35.4 µM). The Infection degree came to 25.0 in the test on Botrytis cinerea [2] (setting [5]), 37.5 in the test on Botrytis cinerea [2] (setting [6]), 45.0 with Botrytis cinerea [2] (setting [7]) and 62.5 in the test on Botrytis cinerea [2] (setting [8]). The Diameter of lesion came out at 10 mm in the test with Botrytis cinerea [3] (setting [9]); 18 mm with Botrytis cinerea [3] (setting [10]); 23 mm with Botrytis cinerea [3] (setting [11]); 26 mm in the test with Botrytis cinerea [3] (setting [12]); 30 mm in the test on Botrytis cinerea [3] (setting [13]).

The values are drawn from patent EP0311051A2, “Pyridylacetonitrile derivatives” (priority 1987, dated 1989).
